From patent US7807418B2, “Method for producing hybrid polyketide synthases” (Biotica Technology Limited, priority 1996, dated 2010)

Test system: Bacillus subtilis ATCC 6633
Assay: Determination of antibiotic activity, agar well diffusion, zones of growth inhibition
Assay type: cell-based
Conditions: nutrient 1.5% agar seeded with B. subtilis; 20 microlitres of test compound as a solution in ethanol (5-10 mg/L) per well; incubated overnight
Method: A 3 ml overnight culture of Bacillus subtilis ATCC 6633 was grown at 30% C in nutrient broth (Difco). 200 ml of nutrient 1.5% agar (difco) at 46% C was seeded with 1 ml of the B.subtilis culture and poured immediately into petri dishes (25 ml/plate). After drying the plates in a laminar flow hood for 15 minutes, wells ([…] in diameter) were cut using a cork borer and 20 microlitres of the test compound as a solution in ethanol (5-10 mg/L) was added to each well. The plates were kept at 4% C for 5-7 hours to allow the compound to diffuse, and the plates were then incubated overnight at 30% C.

Row | SMILES | zones of growth inhibition
1 | COC1(C)CC(OC2C(C)C(=O)OC(C(C)C)C(C)(O)C(O)C(C)C(=O)C(C)CC(C)(O)C(OC3OC(C)CC(N(C)C)C3O)C2C)OC(C)C1O (centres unmarked) [(i-but)-erythromycin A] | Clear zones of growth inhibition
2 | CCC(C)C1OC(=O)C(C)C(OC2CC(C)(OC)C(O)C(C)O2)C(C)C(OC2OC(C)CC(N(C)C)C2O)C(C)(O)CC(C)C(=O)C(C)C(O)C1(C)O (centres unmarked) [(s-pent)-erythromycin A] | Clear zones of growth inhibition
